Source: patent publication US12686692B2, “KRas G12D inhibitors” (Mirati Therapeutics, Inc., priority 2020, dated 2026)

Experiments:
KRas G12D [1] = target: T1, KRas G12D (Homo sapiens, UniProt P01116, G12D); assay: KRas G12D Surface Plasmon Resonance (SPR) Binding Assay; conditions: Biacore T200, biotinylated Avidin-tagged KRAS protein on SA chip, 20 C, 1:1 binding model
Method: This Example illustrates that exemplary compounds of the present invention bind to KRas G12D as measured by surface plasmon resonance (SPR). Briefly, 1 L of 1.05×HBS-Mg buffer (262.5 mM BioUltra Hepes, pH 7.5, 157.5 mM NaCl, 105 mM MgCl2, 0.525 mM TCEP, […] Brij-35) was prepared and filter sterilized using a 0.22 μm bottle top filter. Approximately 50 mL of 1.05×HBS-Mg buffer was removed and saved for future dilutions. A 50 mL aliquot of DMSO (Sigma Aldrich DMSO Lot. #SHBK2079) was added and continued to stir for 10 minutes, creating the final 1.0×HBS-Mg buffer (250 mM BioUltra Hepes pH 7.5, 150 mM NaCl, 100 mM MgCl2, 0.5 mM TCEP, 0.03% Brij-35). Biacore T200 instrument was primed using 1.0×HBS-Mg buffer before docking a GE Streptavidin (SA) chip and then primed two additional times prior to beginning the immobilization step. All immobilized protein mixtures were created using 3-5 mg/mL Biotinylated Avidin-tagged KRAS protein using the following immobilization settings: SA chip type, 1 flow cells per cycle, 720 second contact time, and 5 μL/min flow rate. Normalization of the detector was also performed during the immobilization step using the GE BiaNormalize solution. All compounds were diluted to 10 mM in 100% DMSO prior to being diluted 20× in 1.05× buffer. Another 10× dilution was created using 1.0× buffer prior to performing a series of 3× dilutions to create a compound concentration curve using the following assay settings: 20 C analysis temperature, General Settings=10 Hz data collection rate and multi-detection; Assay Steps=all set to LMW kinetics; Cycle Types=LMW kinetics (60s contact time, 120s dissociation time, 100 μL/min flow rate, extra wash after injection with 50% DMSO, flow path 1,2,3,4); Flow path detection=2-1, 4-3). Data evaluation was performed using the Biacore T200 Evaluation software and data fit to 1:1 binding model.
Target sequence in this assay (P01116 1-188 isoform P01116-2 G12D): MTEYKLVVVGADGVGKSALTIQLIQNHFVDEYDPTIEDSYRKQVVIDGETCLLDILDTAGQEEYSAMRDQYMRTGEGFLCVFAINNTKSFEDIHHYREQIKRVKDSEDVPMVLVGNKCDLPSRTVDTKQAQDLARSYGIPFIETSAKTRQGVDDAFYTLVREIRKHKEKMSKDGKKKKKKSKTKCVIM

KRas G12D [2] = target: T1, KRas G12D; assay: KRas G12D Binding Assay (TR-FRET displacement of labeled tracer); design: corresponding to amino acids 1:169, produced at Array BioPharma; biotin (protein is biotinylated); conditions: TR-FRET displacement of Cy5 labelled tracer, biotinylated GDP-loaded KRAS G12D (aa 1:169), 60 minute incubation at 22° C.
In short: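 Biotinylated GDP-loaded human KRAS G12D (aa 1–169) incubated with Cy5 tracer, Eu-streptavidin and compound (2% DMSO final) in 50 mM HEPES pH 7.5, 5 mM MgCl2, 0.005% Tween-20, 1 mM DTT, 60 min at 22 °C. TR-FRET ratio converted to percent of control; IC50 at 50 POC from 4-parameter logistic fit.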
Target sequence in this assay (P01116 1-169 isoform P01116-2 G12D): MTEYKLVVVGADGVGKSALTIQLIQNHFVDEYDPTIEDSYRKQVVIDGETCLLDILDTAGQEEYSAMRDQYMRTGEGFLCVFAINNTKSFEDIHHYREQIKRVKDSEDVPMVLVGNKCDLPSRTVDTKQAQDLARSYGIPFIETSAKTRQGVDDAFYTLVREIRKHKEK

[3] = test system: KRas G12D-mediated Phosphorylation of ERK; assay: Inhibition of KRas G12D-mediated Phosphorylation of ERK in AGS cells; type: cell-based; conditions: Homo sapiens; AGS cells expressing G12D, 3 hours, phospho-ERK normalized to GAPDH
Method: AGS cells (ATCC CRL-1739) expressing G12D were grown in DMEM medium supplemented with 10% fetal bovine serum, 10 mM HEPES, and Penicillin/Streptomycin. Cells were plated in tissue culture treated 96 well plates at a density of 40,000 cells/well and allowed to attach for 12-14 hours. Diluted compounds were then added in a final concentration of 0.5% DMSO. After 3 hours, the medium was removed, 150 μl of 4.0% formaldehyde was added and the plates incubated at room temperature for 20 minutes. The plates were washed with PBS, and permeabilized with 150 μL of ice cold 100% methanol for 10 minutes. Non-specific antibody binding to the plates was blocked using 100 μL Licor blocking buffer (Li-Cor Biotechnology, Lincoln NE) for 1 hour at room temperature.
The amount of phospho-ERK was determined using an antibody specific for the phosphorylated form of ERK and compared to the amount of GAPDH. Primary antibodies used for the detection were added as follows: Phospho-ERK(Cell Signaling cs-9101) diluted 1:500 and GAPDH(Millipore MAB374) diluted 1:5000 in Licor block+0.05% Tween 20. The plates were incubated for 2 hours at room temperature. The plates were washed with PBS+0.05% Tween 20.
Secondary antibodies used to visualize primary antibodies were added as follows: Anti-rabbit-680 diluted 1:1000 and Anti-mouse-800 diluted 1:1000 both in Licor block+0.05% Tween20, and were incubated for 1 hour at room temperature. The plates were washed with PBS+0.05% Tween 20. A 100 μl aliquot of PBS was added to each well and the plates were read on a Li-Cor Odyssey CLX plate reader.
The phospho-ERK(Thr202/Tyr204 signal was normalized to the GAPDH signal for each well and percent of DMSO control values were calculated. IC50 values were generated using a 4-parameter fit of the dose response curve.

Row | Structure (SMILES) | Kd (KRas G12D [1]) [nM] | IC50 (KRas G12D [2]) [nM] | IC50 [3] [nM]
1 | C[C@H]1CC2CN(c3nc(OC[C@@H]4CCCN4C)nc4c3CCN(c3cccc5cccc(Cl)c35)C4)C[C@H]1N2 (single isomer, unassigned) [Example 88] | 2100 | 1090 | –
2 | CN1CCC[C@H]1COc1nc2c(c(N3C[C@H]4C/C(=C\C#N)[C@@H](C3)N4)n1)CCN(c1cccc3cccc(Cl)c13)C2 (single isomer, unassigned) [Example 89] | 27100 | > 10000 | –
3 | CN1CCC[C@H]1COc1nc2c(c(N3C[C@H]4C/C(=C/C#N)[C@@H](C3)N4)n1)CCN(c1cccc3cccc(Cl)c13)C2 (single isomer, unassigned) [Example 90] | 938 | 1460 | –
4 | CN1CCC[C@H]1COc1nc2c(c(N3C[C@H]4CC[C@@H](C3)N4)n1)CCN(c1cccc3c1C(CC#N)CCC3)C2 (stereo partly drawn) [Example 85, 2-(8-(4-((1R,5S)-3,8-diazabicyclo[3.2.1]octan-3-yl)-2-(((S)-1-methylpyrrolidin-2-yl)methoxy)-5,8-dihydropyrido[3,4-d]pyrimidin-7(6H)-yl)-1,2,3,4-tetrahydronaphthalen-1-yl)acetonitrile] | 1510 | – | –
5 | CCc1cccc2cccc(N3CCc4c(nc(OCC56CCCN5C(COC(=O)N5CC[C@H](O)C5)CC6)nc4N4C[C@H]5CC[C@@H](C4)N5)C3)c12 (stereo partly drawn) [Example 105, (7a-(((4-((1R,5S)-3,8-diazabicyclo[3.2.1]octan-3-yl)-7-(8-ethylnaphthalen-1-yl)-5,6,7,8-tetrahydropyrido[3,4-d]pyrimidin-2-yl)oxy)methyl)hexahydro-1H-pyrrolizin-3-yl)methyl (3S)-3-hydroxypyrrolidine-1-carboxylate] | – | 2.3 | 561
6 | CCc1cccc2cccc(N3CCc4c(nc(OCC56CCCN5C(COC(=O)N5CC[C@@H](OC)C5)CC6)nc4N4C[C@H]5CC[C@@H](C4)N5)C3)c12 (stereo partly drawn) [Example 106, (7a-(((4-((1R,5S)-3,8-diazabicyclo[3.2.1]octan-3-yl)-7-(8-ethylnaphthalen-1-yl)-5,6,7,8-tetrahydropyrido[3,4-d]pyrimidin-2-yl)oxy)methyl)hexahydro-1H-pyrrolizin-3-yl)methyl (3R)-3-methoxypyrrolidine-1-carboxylate] | – | 7.2 | 5110
7 | CCc1cccc2cccc(N3CCc4c(nc(OC[C@]56CCCN5[C@@H](COC(=O)N(C)CCO)CC6)nc4N4C[C@H]5CC[C@@H](C4)N5)C3)c12 [Example 107, ((3R,7aR)-7a-(((4-((1R,5S)-3,8-diazabicyclo[3.2.1]octan-3-yl)-7-(8-ethylnaphthalen-1-yl)-5,6,7,8-tetrahydropyrido[3,4-d]pyrimidin-2-yl)oxy)methyl)hexahydro-1H-pyrrolizin-3-yl)methyl (2-hydroxyethyl)(methyl)carbamate] | – | 2 | 408
8 | CCc1cccc2cccc(N3CCc4c(nc(OC[C@]56CCCN5[C@@H](COC(=O)NCCOC)CC6)nc4N4C[C@H]5CC[C@@H](C4)N5)C3)c12 [Example 108, ((3R,7aR)-7a-(((4-((1R,5S)-3,8-diazabicyclo[3.2.1]octan-3-yl)-7-(8-ethylnaphthalen-1-yl)-5,6,7,8-tetrahydropyrido[3,4-d]pyrimidin-2-yl)oxy)methyl)hexahydro-1H-pyrrolizin-3-yl)methyl (2-methoxyethyl)carbamate] | – | 2 | 585
9 | Brc1ccc(N2CCc3c(nc(OCC45CCCN4CCC5)nc3N3C[C@H]4CC[C@@H](C3)N4)C2)c2ccccc12 [Example 112, 4-((1R,5S)-3,8-diazabicyclo[3.2.1]octan-3-yl)-7-(4-bromonaphthalen-1-yl)-2-((hexahydro-1H-pyrrolizin-7a-yl)methoxy)-5,6,7,8-tetrahydropyrido[3,4-d]pyrimidine] | – | 5460 | > 16700
10 | c1ccc2c(N3CCc4c(nc(OCC56CCCN5CCC6)nc4N4C[C@H]5CC[C@@H](C4)N5)C3)cccc2c1 [Example 114, 4-((1R,5S)-3,8-diazabicyclo[3.2.1]octan-3-yl)-2-((hexahydro-1H-pyrrolizin-7a-yl)methoxy)-7-(naphthalen-1-yl)-5,6,7,8-tetrahydropyrido[3,4-d]pyrimidine] | – | 34.2 | > 16700
11 | Oc1cc(N2CCc3c(nc(OCC45CCCN4CCC5)nc3N3C[C@H]4CC[C@@H](C3)N4)C2)c2c(Cl)cccc2c1 [Example 115, 4-(4-((1R,5S)-3,8-diazabicyclo[3.2.1]octan-3-yl)-2-((hexahydro-1H-pyrrolizin-7a-yl)methoxy)-5,6-dihydropyrido[3,4-d]pyrimidin-7(8H)-yl)-5-chloronaphthalen-2-ol] | – | 0.6 | 118
12 | Oc1cc(N2CCc3c(nc(OCC45CCCN4CCC5)nc3N3C[C@H]4CC[C@@H](C3)N4)C2)c2c(Cl)c(F)ccc2c1 [Example 116, 4-(4-((1R,5S)-3,8-diazabicyclo[3.2.1]octan-3-yl)-2-((hexahydro-1H-pyrrolizin-7a-yl)methoxy)-5,6-dihydropyrido[3,4-d]pyrimidin-7(8H)-yl)-5-chloro-6-fluoronaphthalen-2-ol] | – | 0.5 | 46
13 | Oc1cc(N2CCc3c(nc(OC[C@@]45CCCN4C[C@H](F)C5)nc3N3C[C@H]4CC[C@@H](C3)N4)C2)c2c(Cl)cccc2c1 [Example 117, 4-(4-((1R,5S)-3,8-diazabicyclo[3.2.1]octan-3-yl)-2-(((2R,7aS)-2-fluorohexahydro-1H-pyrrolizin-7a-yl)methoxy)-5,6-dihydropyrido[3,4-d]pyrimidin-7(8H)-yl)-5-chloronaphthalen-2-ol] | – | 0.7 | 76
14 | CCc1c(F)ccc2cc(O)cc(N3CCc4c(nc(OCC56CCCN5CCC6)nc4N4C[C@H]5CC[C@@H](C4)N5)C3)c12 [Example 119, 4-(4-((1R,5S)-3,8-diazabicyclo[3.2.1]octan-3-yl)-2-((hexahydro-1H-pyrrolizin-7a-yl)methoxy)-5,6-dihydropyrido[3,4-d]pyrimidin-7(8H)-yl)-5-ethyl-6-fluoronaphthalen-2-ol] | – | 1.6 | 7
15 | CN1CCC[C@H]1COc1nc2c(c(N3C[C@@H]4C[C@H](CO)[C@H](C3)N4)n1)CCN(c1cc(O)cc3ccccc13)C2 [Example 120, 4-(4-((1S,5R,6S)-6-(hydroxymethyl)-3,8-diazabicyclo[3.2.1]octan-3-yl)-2-(((S)-1-methylpyrrolidin-2-yl)methoxy)-5,8-dihydropyrido[3,4-d]pyrimidin-7(6H)-yl)naphthalen-2-ol] | 1400 | – | –
16 | CCc1cccc2cccc(N3CCc4c(nc(OC[C@@]56CCCN5C[C@H](F)C6)nc4[C@H]4C[C@H]5CC[C@@H](C4)N5)C3)c12 [Example 121, 4-((1R,3r,5S)-8-azabicyclo[3.2.1]octan-3-yl)-7-(8-ethylnaphthalen-1-yl)-2-(((2R,7aS)-2-fluorotetrahydro-1H-pyrrolizin-7a(5H)-yl)methoxy)-5,6,7,8-tetrahydropyrido[3,4-d]pyrimidine] | – | 8.7 | 2360
